This passage reports inhibition and cardiovascular effect results from patent US5582828A, “Active fractions of Cordyceps sinensis and method of isolation thereof” (Lin; Ching-Yuang, priority 1995, dated 1996).

Assay [1] concerns activated human mesangial cells. The assay is described as follows: in vitro inhibition of activated (IL-1 and IL-6) human mesangial cells, [3H]-thymidine incorporation. In kind it is cell-based. Particulars: Mesangial cell, n = 3, read-out: in vitro inhibitory action. From the text:
In terms of activation of mesangial cells, [^3 H]-thymidine incorporation method is used as an index of DNA synthesis. Cultured human mesangial cells are first activated by exposing them to IL-1 and IL-6. The decrease in [^3 H]-thymidine incorporation after exposure to various fractions and compounds in Cordyceps sinensis was used as the in vitro screening method for identifying potential substances which are capable of inhibiting the proliferation of activated human mesangial cells.
Two methods of investigation (in vitro and in vivo) were adopted for the invention discussed in the patent application. One of these utilizes in vitro suppression of activated human mesangial cells as its model: the activity index used is the degree to which activation by interleukins 1 and 6 is suppressed by treatment with the fractions and purified compound H1-A of Cordyceps sinensis. Isotope-labeled [^3 H]-thymidine converted into [^3 H]-thymidine incorporation is the basis by which the degree of activation of mesangial cells is determined (please see Tables 1-1 to 1-5).
Background: Dividing cells build labelled thymidine or BrdU into new DNA.

Assay [2] deals with cardiovascular system. Particulars: in vivo; cited from earlier work.

With `CC[C@H](C)C(=O)O[C@H]1C[C@@H](C)C=C2C=C[C@H](C)[C@H](CC[C@@H]3C[C@@H](O)CC(=O)O3)[C@H]21` [Lovastatin, lovastatin], the inhibition at 20 µM in assay [1] (Table 1-5, 20 μM) was found to be 19.8 ± 2%. The inhibition at 50 µM in assay [1] (Table 1-5, 50 μM) came out at 37.1 ± 4.3%. In addition, the inhibition at 75 µM in assay [1] (Table 1-5, 75 μM) was 60.9 ± 3.8%. In addition, the inhibition at 100 µM in assay [1] (Table 1-5, 100 μM) was 73 ± 4%.

As for `Nc1ncnc2c1ncn2[C@@H]1O[C@H](CO)[C@@H](O)[C@H]1O` [Adenosine], the cardiovascular effect result in assay [2] was “acts to relax vascular smooth muscle and causes vasodilatation”.
